Experiments:
[1] = tested on: Monocotyledonous and dicotyledonous test plants; assay: Herbicidal action before emergence of the plants (pre-emergence action), greenhouse pot test, 9-level rating after 4 weeks; assay type: in vivo; settings: 250 g/ha, rated after 4 weeks, 9-level scale
Procedure, shortened: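 Compounds applied pre-emergence as a spray (500 l water/ha) of aqueous suspension or emulsion onto soil immediately after sowing mono- and dicot species in pots. Greenhouse-grown; damage rated after 4 weeks on a 9-level scale (1=complete damage, 9=no effect).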

[2] = tested on: Monocotyledonous and dicotyledonous test plants; assay: Post-emergence herbicidal action, greenhouse pot test, sprayed at the 2- to 3-leaf stage, 9-level rating after 2 to 3 weeks; assay type: in vivo; settings: 250 g/ha, rated after 2 to 3 weeks, 9-level scale
Procedure, shortened: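 Plants grown in standard soil in pots; test substances sprayed at the 2- to 3-leaf stage at optimum dosage (500 l water/ha) as aqueous suspension or emulsion from formulated concentrates. Plants then kept in the greenhouse under optimum conditions; rated after 2 to 3 weeks on a 9-level scale (1=complete damage, 9=no effect).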

| Compound | Pre-emergence action rating, Abutilon [1] | Pre-emergence action rating, Amaranthus [1] | Pre-emergence action rating, Chenop. [1] | Pre-emergence action rating, Digitaria [1] | Pre-emergence action rating, Echino. [1] | Pre-emergence action rating, Panicum [1] | Post-emergence action rating, Abutilon [2] | Post-emergence action rating, Amaranth [2] | Post-emergence action rating, Chenop. [2] | Post-emergence action rating, Digitaria [2] | Post-emergence action rating, Echino. [2] | Post-emergence action rating, Ipopur. [2] | Post-emergence action rating, Panicum [2] | Post-emergence action rating, Xanth. [2] |
| --- | --- | --- | --- | --- | --- | --- | --- | --- | --- | --- | --- | --- | --- | --- |
| CC(=O)OCc1nc(C(F)(F)F)ccc1C(=O)C1=C(O)C2CCC(C2)C1=O (centres unmarked) [A833-B52, (H4), 3-(2-Hydroxy-4-oxobicyclo[3.2.1]oct-2-en-3-carbonyl)-6-trifluoromethylpyridin-2-yl methyl acetate] | 1 | 1 | 1 | 1 | 1 | 1 | 3 | 2 | 3 | 3 | 4 | 2 | 3 | 1 |
| COCCOCc1nc(C(F)(F)F)ccc1C(=O)C1=C(O)CCC2(CC2)C1=O [A10-B17] | 4 | 2 | 1 | 1 | 1 | 1 | 2 | 2 | 1 | 1 | 2 | 2 | 2 | 2 |
| COCCOCc1nc(C(F)(F)F)ccc1C(=O)C1=C(O)CCCC1=O [A10-B1] | 1 | 1 | 1 | 2 | 2 | 2 | 2 | 2 | 1 | 2 | 2 | 2 | 2 | 2 |
| CC(=O)OCc1nc(C(F)(F)F)ccc1C(=O)C1=C([O-])C2CCC(C2)C1=O.[K+] (centres unmarked) [A833-B52 (K+)] | 1 | 2 | 1 | 2 | 2 | 1 | 3 | 3 | 3 | 3 | 4 | 3 | 3 | 2 |
| COCCOCCOCc1nc(C(F)(F)F)ccc1C(=O)C1=C(O)C2CCC(C2)C1=O (centres unmarked) [A835-B52] | 2 | 1 | 2 | 2 | 1 | 1 | 2 | 2 | 1 | 1 | 2 | 2 | 1 | 3 |
| COCCCOCc1nc(C(F)(F)F)ccc1C(=O)C1=C(O)C2CCC(C2)C1=O (centres unmarked) [A846-B52] | 2 | 1 | 1 | 1 | 1 | 1 | 2 | 2 | 2 | 2 | 2 | 1 | 1 | 2 |
| O=C(C1=C(O)C2CCC(C2)C1=O)c1ccc(C(F)(F)F)nc1COC1CCCCC1 (centres unmarked) [A27-B52] | 4 | 1 | 3 | 2 | 3 | 1 | 3 | 2 | 5 | 2 | 2 | 4 | 1 | 2 |
| O=C(C1=C(O)C2CCC(C2)C1=O)c1ccc(C(F)(F)F)nc1COCCOCC(F)(F)F (centres unmarked) [A845-B52] | 1 | 1 | 1 | 1 | 1 | 1 | 2 | 2 | 1 | 2 | 2 | 2 | 2 | 2 |
| O=C(C1=C(O)C2CCC(C2)C1=O)c1ccc(C(F)(F)F)nc1COCCCO (centres unmarked) [A847-B52] | 4 | 1 | 4 | 3 | 2 | 1 | 2 | 3 | 1 | 2 | 1 | 4 | 1 | 2 |
| COc1cc(OC)nc(SCc2nc(C(F)(F)F)ccc2C(=O)C2=C(O)C3CCC(C3)C2=O)n1 (centres unmarked) [A830-B52] | 5 | 4 | 4 | 9 | 3 | 4 | 5 | 4 | 4 | 9 | 3 | 5 | 4 | 4 |

Source: patent US7378375B1, “Substituted pyridine herbicides” (Syngenta Crop Protection, Inc., priority 2000, dated 2008)
